Measured values taken from patent publication US9163020B2, “Azaindole compounds, synthesis thereof, and methods of using the same” (Global Alliance for TB Drug Development, priority 2013, dated 2015).
In brackets after ≈: the same amount, converted by molar mass. Where two headings read alike, the source gives them in different places.

Legend:
[1] = infected BALB/c mice, acute efficacy, +ABT
[2] = system: hypoxia induced non-replicating persistent (NRP) Mtb cells; assay: Activity against hypoxia induced non-replicating persistent (NRP) Mtb (HBC, Wayne model); assay type: cell-based, Mycobacterium tuberculosis
in vivo [3] = details: BALB/c, mouse, 100 mg/kg; for AUC(0-inf) / Cmax: po; for AUC(0-inf): AUC0-∞
Protocol: ELF PK was performed in healthy mice (three mice/group) as described previously (Solapure et. al, 2013) after administration of a single oral dose of 100 mg/kg compound formulated in 0.5% HPMC, and 0.1% Tween 80 suspensions. […] Broncho-Alveolar Lavage (BAL) was performed after tracheotomy using 0.7 mL of ice-cold PBS. Urea estimation kit, DIUR-500 (Bio-assay Systems, U.S.A) was used for urea estimation in plasma and BAL samples. Volume of ELF was calculated after normalizing the urea concentration in BAL with that of plasma as described in Marry et. al, 2011. Plasma and BAL samples were stored at −20° C. until analysis using LC-MS/MS.
One mg/mL stock solution of each compound was prepared in Dimethylsulfoxide (DMSO) and diluted two-fold with acetonitrile. A sixteen point calibration curve was utilized for each analyte, and the standard curves ranged from 0.001 to 40 μg/mL. Plasma/BAL samples were precipitated by adding chilled acetonitrile (1:10 v/v) containing carbamazepine as internal standard (250 ng/mL). Samples were vortexed, and centrifuged at 4000 rpm for 30 min at 10° C. The resulting supernatant was mixed with mobile phase (50% acetonitrile in water with 0.1% formic acid). […] of sample was injected on to a liquid chromatographic system (Waters-ACQUTY UPLC) coupled to triple quadrupole mass spectrometer (Waters-ACQUTY-TQD; MS/MS). Samples were acquired in positive ion mode and detected by multiple reaction monitoring (MRM). Concentrations of the analyte were determined from a standard curve obtained by plotting known concentrations of the analyte against peak area ratios (analyte/internal standard peak response).
Volume of ELF in the BAL samples was calculated as volume of BAL multiplied by the ratio of urea concentrations in BAL and plasma as described (Solapure et. al, 2013; Marry et. al, 2011) The compound concentration in ELF was calculated by multiplying concentration in BAL samples by the ratio of BAL volume to the ELF volume. AUC0-∞ in plasma and ELF were calculated by Non-compartmental analysis WinNonlin Phoenix Software (version 6.2; Pharsight, USA). Free plasma AUC was calculated after multiplying concentrations at each time point by the free fraction in plasma. Lung ELF penetration ratio was calculated as a ratio of AUC0-∞ in ELF to free AUC0-∞ in free plasma/total plasma during the same time interval. This ratio, measured in healthy mice after single dose administration, was assumed to remain constant during multiple dose efficacy study in the infected mice. Sparse sample analysis in WinNonlin was used for estimating standard error (SE) associated with AUC estimate.

[4] = system: CYP1A2, CYP2C9, CYP2C19, CYP2D6, CYP3A4; details: human
in vivo [5] = details: BALB/c, mouse, po, 50 mg/kg
[6] = infected BALB/c mice, chronic efficacy, multiple oral doses 30 mg/kg, +ABT
[7] = assay type: in vitro ADME; details: pH 7.4
Protocol: 1 μM compound was incubated with 1 mg/mL of microsomes (Pooled HLM/MLM with 20 mg/ml protein cone.) at 37° C. in 166 μL of buffer (100 mM phosphate buffer, pH-7.4) containing 2 mM NADPH solution. […] The quench plate was centrifuged at 4000 rpm for 15 min. 30 μL of supernatant was diluted to 300 μL with 50% acetonitrile in water and substrate depletion was analyzed using LC-MS/MS.

[8] = system: Mycobacterium tuberculosis (Mtb) H37Rv ATCC 27294; assay: microbe, parasite or virus in culture; assay type: cell-based; details: Mycobacterium tuberculosis, read-out: Mtb MIC
[9] = system: A549 human lung carcinoma cells; assay type: cell-based; details: human, 72 h
Protocol: The in vitro cytotoxicity of compounds were measured against A549 human lung carcinoma cells as describedin Eakin et. al (2012). Briefly, A549 cells (ATCC) were grown in RPMI medium (GIBCO-BRL) containing 10% heat-inactivated fetal bovine serum (GIBCO-BRL) and 1 mM L-glutamine (GIBCO-BRL) at a density of 1,000 cells/well. After incubation of the cells with compound in a CO2 atmosphere at 37° C. for 72 hours, cell viability was determined following addition of […] of resazurin solution (Sigma), by measuring fluorescence (excitation at 535 nm, emission at 590 nm) using a fluorimeter.

in vitro = in vitro ADME; details: plasma
Protocol: Protein binding is measured using the equilibrium dialysis technique. Compound is added to 10% plasma giving a concentration of 20 μM and dialysed with isotonic buffer for 18 hours at 37° C. The plasma and buffer solutions are analysed using generic LCUVMS and the first apparent binding constant for the compound derived. The binding constant is then used to determine the % free in 100% plasma.

[10] = 1 μM
Protocol: Viability of cryopreserved hepatocytes was determined using trypan blue and the cell conc. was adjusted to 10^6 cells per mL with buffer (KHB buffer). 1 μM compound (in Acetonitrile; 0.01% DMSO) was incubated with 500 μL of hepatocyte cells (1 million cells per mL) in a NUNC plate. […] Supernatants were analyzed using LC-MS/MS for substrate depletion.

[11] = system: panel of human targets and cardiac channels

## COc1ncnc(Cn2cc(C(=O)NCCF)c3ncccc32)c1C [Compound 3, N-(2-fluoroethyl)-1-((6-methoxy-5-methylpyrimidin-4-yl)methyl)-1H-pyrrolo[3,2-b]pyridine-3-carboxamide]
[1]; multiple oral doses 50 mg/kg
  % T > MIC: 58%
  % fT > MIC: 23%
[1]; multiple oral doses 100 mg/kg
  % T > MIC: 66%
  % fT > MIC: 41%
[2]; cidality measured as HBC in Wayne model
  activity against non-replicating Mtb under hypoxic conditions: moderate activity
[2]; hypoxic conditions, Wayne model, Table 4
  Mtb HBC: 50 µM
In vivo [3]; ELF penetration ratio (based on free plasma AUC)
  Kp: 7.29 to 26.1
In vivo [3]; ELF penetration ratio (based on total plasma AUC)
  Kp: 0.6 to 1.97
In vivo [3]; ELF
  AUC(0-inf): 713 ± 176 µM·h
  Cmax: 74 ± 3.77 µM
In vivo [3]; Plasma
  AUC(0-inf): 573 ± 78.8 µM·h
  Cmax: 63.8 ± 7.37 µM
In vivo [3]; fPlasma
  AUC(0-inf): 43.5 ± 5.96 µM·h
  Cmax: 4.85 ± 0.56 µM
[4]
  CYP inhibition: >50 µM
In vivo [5]
  AUC(0-inf): 106 ± 3.04 µM·h
  Cmax: 17.8 ± 5.61 µM
  Tmax: 4.33 ± 1.15 h
  half-life: 2.38 ± 0.19 h
[6]
  % T > MIC: 92%
  % fT > MIC: 29%
[7]
  Human CLpred microsomes (% LBF): 10.4 % LBF
[8]; Table 1
  MIC: 1.56 µM (≈ 0.536 µg/mL)
[8]; Table 4
  MIC: 1.56 to 3.12 µM (≈ 0.536 to 1.07 µg/mL)
[9]
  MMIC (A549): >100 µM
In vitro; human
  fraction unbound at 18 h, 20 μM: 0.05 to 0.22
In vitro
  Human PPB (% free): 9.8 % free
[10]
  Human CLpred hepatocytes (% LBF): 6.0 % LBF
  Rat CLpred hepatocytes (% LBF): 13 % LBF
[11]
  Secondary pharmacology hits IC50: No significant hits
  in vitro safety profiling: no major safety liabilities
